The values below come from patent US11021486B2, “Coumarin-like cyclic compound as MEK inhibitor and use thereof” (CSTONE PHARMACEUTICALS, priority 2017, dated 2021).

Data set [1] is described as follows: Pharmacokinetics study of the compounds in C57BL/6 mice. The data set is classed as in vivo. To be noted: male, mouse, single intravenous and oral dose, plasma. As to the method: Biological Test Method 4: Pharmacokinetics Study of the Compounds in C57BL/6 Mice Experimental Materials: C57BL/6 mice (male, 18-22 g, 7-9 weeks old, Shanghai Lingchang) Experimental Procedure: The pharmacokinetic characteristics of the compounds in rodents were determined after intravenous and oral administration of the compounds by standard protocols. In the experiment, candidate compounds were formulated into clear solutions, and intravenously and orally administrated to […] in a single dose. The menstruum for intravenous and oral administration was DMSO, PEG and water at a certain ratio or Solutol, HPMC and SLS aqueous solutions at a certain ratio. The whole blood samples within 24 hours were collected, centrifuged at 3,000 rpm for 15 minutes, and the supernatants were isolated to obtain plasma samples. An acetonitrile solution containing an internal standard with a volume of 4 times as the plasma sample volume was added to precipitate the protein. After centrifugation, the supernatant was collected and an equal volume of water was added. After centrifugation, the supernatant was collected and injected to quantitatively analyze the blood drug concentration by LC-MS/MS analysis method, and the pharmacokinetic parameters were calculated, e.g., peak concentration, peak time, clearance, half-life, area under the drug concentration-time curve, bioavailability, etc.

The next data set has as its system HT29 cells. The data set can be described thus: Cell viability experiment (Cell Titer-Glo), HT29. To be noted: Homo sapiens, HT-29, 72 h, HT29 cells, 3 days incubation; read-out: HT29 IC50. The data set is classed as cell-based, human. As to the method:
(§1) Biological Test Method 2: Cell Viability Experiment
(§2) HT29 and A375 cells were plated in a 96-well cell culture plate at a density of 40,000 cells/well and 20,000 cells/well respectively, and the cells were cultured overnight. The compounds were serially diluted in a gradient of 1:3, the dilutions were added to the cell culture medium, and incubated with the cells in a 37° C. incubator for 3 days. The 96-well cell culture plate was taken from the incubator and equilibrated at room temperature for 30 minutes, then Cell Titer-Glo reagent (Promega Cat #G7573) was added at a ratio of 1:2, and the mixture was mixed thoroughly on a shaker for 2 minutes to promote cell lysis. The cell culture plate was incubated at room temperature for 10 minutes and then read on an Envision microplate reader (PerkinElmer). XLfit5 software was used for data analysis and mapping.
On the technique in general: In ATP-based viability assays light output follows the ATP content of the culture.

The subject of data set [2] is HT-29 cell subcutaneous xenograft tumor. The experiment in a line: In vivo pharmacodynamics study on HT-29 cell subcutaneous xenograft tumor model. Set-up: species or system BALB/c nude mouse. To be noted: 0.5 mpk, QD, 21 days. As to the method: Biological Test Method 3: In Vivo Pharmacodynamics Study on HT-29 Cell Subcutaneous Xenograft Tumor Model in BALB/c Nude Mouse
Human colon cancer HT-29 cells (ATCC-HTB-38) were cultured in monolayer in vitro, with McCoy's 5a medium (Gibco, 1835937) supplemented with 10% fetal bovine serum, 100 U/mL penicillin and 100 μg/mL streptomycin, at 37° C. under 5% CO2. The cells were conventionally digested with trypsin-EDTA and passaged twice a week. When the cell saturation was 80%-90%, the cells were collected, counted and inoculated. 0.1 mL (5×10^6) of HT-29 cells was subcutaneously inoculated into the right back of each nude mouse. […] The diameter of the tumor was measured twice a week with a vernier caliper. The tumor volume is calculated by the formula: V=0.5a×b^2, wherein a and b represent the length and width respectively. The antitumor activity of the compounds was evaluated by TGI (%), which reflects the tumor growth inhibition rate. Calculation of TGI (%): TGI (%)=[(1−(average tumor volume at the end of administration in a treatment group−average tumor volume at the start of treatment in this treatment group))/(average tumor volume at the end of treatment in the solvent control group−average tumor volume at the start of treatment in the solvent control group)]×100%.

For another data set, the system named is A375 cells. The data set can be described thus: Cell viability experiment (Cell Titer-Glo), A375. The data set is classed as cell-based. The settings on record: Homo sapiens, A-375, 72 h, A375 cells, 3 days incubation; read-out: A375 IC50. As to the method: as §1, §2
A further data set addresses T1, activated MEK1 (Homo sapiens, UniProt Q02750).
T1 construct: purchased Millipore 14-429
The experiment in a line: MEK Lance Ultra experiment. The settings on record: 0.07 nM activated MEK1, 2 nM non-activated ERK, 50 μM ATP; read-out: MEK potency IC50. It counts as biochemical. On the procedure: Biological Test Method 1: MEK Lance Ultra Experiment Compounds were serially diluted three-fold to 10 concentrations, two duplicates were set. Final test concentrations of the compounds ranged from 10 μM to 0.51 nM. 0.07 nM activated MEK1 (Millipore #14-429) and 2 nM non-activated ERK (Millipore #14-515) were mixed with the compounds or DMSO, the mixture was incubated at 23° C. for 30 minutes. Then 50 nM ULight labeled MBP (PerkinElmer #TRF0109-M) and 50 μM ATP (Invitrogen #PV3227) were added to initiate the reaction, and the mixture was incubated at 23° C. for 90 minutes. After the reaction was stopped by adding EDTA at a final concentration of 15 mM, 2 nM Eu-labeled anti-phosphorylated antibody (PerkinElmer #TRF0201-M) was added and incubated for 1 hour. The fluorescence signal data (excitation band: 320 nm; emission band: 665 nM/615 nM) was determined by an Envision microplate reader (PerkinElmer). XLfit5 software was used for data analysis and mapping.

T1 sequence (Q02750 whole entry): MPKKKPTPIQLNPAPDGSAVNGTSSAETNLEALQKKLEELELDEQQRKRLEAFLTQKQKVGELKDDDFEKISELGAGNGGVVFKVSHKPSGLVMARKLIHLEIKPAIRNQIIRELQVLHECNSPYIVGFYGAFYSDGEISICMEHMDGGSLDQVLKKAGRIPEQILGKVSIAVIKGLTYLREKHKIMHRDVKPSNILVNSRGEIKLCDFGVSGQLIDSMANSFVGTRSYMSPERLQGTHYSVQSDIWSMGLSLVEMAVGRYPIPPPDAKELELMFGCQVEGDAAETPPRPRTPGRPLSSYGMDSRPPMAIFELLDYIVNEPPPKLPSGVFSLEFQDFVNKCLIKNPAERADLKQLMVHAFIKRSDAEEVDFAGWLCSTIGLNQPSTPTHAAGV

For the molecule `Cc1c(Nc2ccc(I)cc2F)c2c(=O)n(C3CC3)c(C)c(-c3cccc(CS(C)(=O)=O)c3)c2oc1=O` [WX071], the clearance in data set [1] amounted to 0.912 mL/min/kg. Also, in data set [1] (read-out: Bioavailability F), the bioavailability came out at 83%. Besides, the AUC in data set [1] (read-out: Comcentration quadrature AUC) worked out at 58.2 µM·h. For the same molecule, the half-life in data set [1] (read-out: Half life T1/2 (converted)) was 5.28 h. Also, the 50% inhibitory concentration (IC50) in the data set on HT29 cells was found to be 4.05 nM; with A375 cells, 2.99 nM; on activated MEK1, 66 nM. For the same molecule, in data set [2], the inhibition of tumour growth (TGI) was determined as 91%.

One may read the bioavailability as the share of a dose that reaches the circulation, judged against a reference dose that is usually intravenous. For orientation: IC50 means the concentration needed to halve the response being measured. By TGI is commonly meant how far tumour growth fell short of that in controls. Read a high TGI as much slowing of growth.
